Data published in patent publication US8658800B2 (priority 2010, dated 2014).
Where two headings read alike, the source gives them in different places.

Assays:
[1] = logP by HPLC on reversed-phase columns (C 18), EEC Directive 79/831 Annex V.A8; format: physicochemical
Description: The logP values reported in the table above and in the Preparation Examples were determined in accordance with EEC Directive 79/831 Annex V.A8 by HPLC (High Performance Liquid Chromatography) on reversed-phase columns (C 18), with the following methods:
The LC-MS determination in the acidic range is carried out at pH 2.7 using the mobile phases 0.1% aqueous formic acid and acetonitrile (contains 0.1% formic acid), linear gradient from 10% acetonitrile to 95% acetonitrile
Calibration was carried out using unbranched alkan-2-ones (having from 3 to 16 carbon atoms) with known logP values (the logP values were determined by the retention times using linear interpolation between two successive alkanones).

[2] = tested on: caterpillars of the armyworm (Spodoptera frugiperda); assay: Spodoptera frugiperda test (SPODFR spray treatment); format: in vivo; settings: foliar, 168 h, read-out: activity (kill of caterpillars)
Description: Spodoptera frugiperda Test (SPODFR Spray Treatment)
Solvents: 78.0 parts by weight of acetone
(§1) • 1.5 parts by weight of dimethylformamide Emulsifier: 0.5 part by weight of alkylaryl polyglycol ether
(§2) To produce a suitable preparation of active compound, 1 part by weight of active compound is mixed with the stated amount of solvents and emulsifier, and the concentrate is diluted with emulsifier-containing water to the desired concentration.
Discs of maize leaves (Zea mays) are sprayed with an active compound preparation of the desired concentration and, after drying, populated with caterpillars of the armyworm (Spodoptera frugiperda).
After 7 days, the effect in % is determined. 100% means that all caterpillars have been killed; 0% means that none of the caterpillars have been killed.

[3] = tested on: larvae of the mustard beetle (Phaedon cochleariae); assay: Phaedon test (PHAECO spray treatment); format: in vivo; settings: 168 h, read-out: activity (kill of beetle larvae)
Description: Phaedon Test ([…] Spray Treatment) Solvents: 78.0 parts by weight of acetone • • 1.5 parts by weight of dimethylformamide Emulsifier: 0.5 part by weight of alkylaryl polyglycol ether To produce a suitable preparation of active compound, 1 part by weight of active compound is mixed with the stated amount of solvents and emulsifier, and the concentrate is diluted with emulsifier-containing water to the desired concentration. Discs of Chinese cabbage (Brassica pekinensis) are sprayed with an active compound preparation of the desired concentration and, after drying, populated with larvae of the mustard beetle (Phaedon cochleariae).

[4] = tested on: green peach aphid (Myzus persicae); assay: Myzus test (MYZUPE spray treatment); format: in vivo; settings: 144 h, sprayed Chinese cabbage discs, after 6 days, read-out: activity (kill of aphids)
Description: Myzus Test (MYZUPE Spray Treatment)
Solvents: 78 parts by weight of acetone
as §1, §2
Discs of Chinese cabbage (Brassica pekinensis) infested by all stages of the green peach aphid (Myzus persicae) are sprayed with an active compound preparation of the desired concentration.
After 6 days, the effect in % is determined. 100% means that all of the aphids have been killed; 0% means that none of the aphids have been killed.

Lucilia cuprina larvae = assay: Lucilia cuprina test (LUCICU); format: in vivo; settings: 100 ppm, treated horse meat, after 2 days
Description: Lucilia cuprina Test (LUCICU)
(§3) Solvent: dimethyl sulphoxide
(§4) To produce a suitable preparation of active compound, 10 mg of active compound are mixed with 0.5 ml of dimethyl sulphoxide and the concentrate is diluted with water to the desired concentration.
Vessels containing horse meat treated with the active compound of the desired concentration are populated with about 20 Lucilia cuprina larvae.
After 2 days, the kill in % is determined 100% means that all of the larvae have been killed; 0% means that none of the larvae have been killed.

adult Musca domestica = assay: Musca domestica test (MUSCDO); format: in vivo; settings: 100 ppm, treated sponge, after 2 days
Description: Musca domestica Test (MUSCDO)
as §3, §4
Vessels containing a sponge treated with the active compound preparation of the desired concentration are populated with adult Musca domestica.
After 2 days, the kill in % is determined 100% means that all of the flies have been killed; 0% means that none of the flies have been killed.

[5] = HPLC, reversed-phase C 18, acidic range pH 2.7, 0.1% aqueous formic acid/acetonitrile, read-out: log P
[6] = reversed-phase C18 HPLC column, HPLC, reversed-phase C 18, acidic range pH 2.7, 0.1% aqueous formic acid/acetonitrile, read-out: log P
[7] = 100 g/ha, sprayed maize leaf discs, after 7 days
[8] = 100 g/ha, sprayed Chinese cabbage discs, after 7 days

chromatographic logP [1, 6]	Structure (SMILES)	pest or weed control at 100 g/ha [2, 7]	pest or weed control at 100 g/ha [3, 8]	also measured
	Cc1cc(Br)cc(OC(F)F)c1N			chromatographic logP [1, 5]: 2.84
	Cc1cc(C#N)cc(OC(F)F)c1N			chromatographic logP [1, 5]: 1.9
	Cc1cccc(C(=O)NS(C)(=O)=O)c1N			chromatographic logP [1, 5]: 1.1
	Cc1cc(Cl)cc(C(=O)NS(=O)(=O)N(C)C)c1NC(=O)c1cc(Cn2cc(C(F)(F)C(F)(F)F)cn2)nn1-c1ncccc1Cl [Compound 1]			chromatographic logP ([1]; pH 2.7): 3.35
3.69	Cc1cc(I)cc(C(=O)O)c1NC(=O)c1cc(Cn2nnc(C(F)(F)C(F)(F)F)n2)nn1-c1ncccc1Br [Compound 2]	100%	100%	pest or weed control at 100 g/ha [4]: 80%
3.16	Cc1cc(F)cc(C(=O)O)c1NC(=O)c1cc(Cn2nnc(C(F)(F)C(F)(F)F)n2)nn1-c1ncccc1Br [Compound 3]	100%		
3.39	Cc1cc(I)cc(C(=O)NS(C)(=O)=O)c1NC(=O)c1cc(Cn2nnc(C(F)(F)C(F)(F)F)n2)nn1-c1ncccc1Br [Compound 4]			
	Cc1cccc(C(=O)NS(C)(=O)=O)c1NC(=O)c1cc(Cn2nnc(C(F)(F)F)n2)nn1-c1ncccc1Cl [Compound 5]			chromatographic logP ([1]; pH 2.7): 2.47; pest or weed control at 100 g/ha ([2]; in Zea mays): 100%
3.77	Cc1cc(Br)cc(OC(F)F)c1NC(=O)c1cc(Cn2nnc(C(F)(F)F)n2)nn1-c1ncccc1Cl [Compound 8]	100%	100%	efficacy (kill) (Lucilia cuprina larvae): 100%
2.85	Cc1cc(C#N)cc(OC(F)F)c1NC(=O)c1cc(Cn2nnc(C(F)(F)F)n2)nn1-c1ncccc1Cl [Compound 9]	100%	100%	efficacy (kill) (Lucilia cuprina larvae): 100%; efficacy (kill) (adult Musca domestica): 80%; pest or weed control at 100 g/ha [4]: 90%
4	Cc1cc(Cl)cc(OC(F)(F)F)c1NC(=O)c1cc(Cn2nnc(C(F)(F)F)n2)nn1-c1ncccc1Cl [Compound 10]	100%		
4.57	COC(=O)c1cc(I)cc(C)c1NC(=O)c1cc(Cn2nc(C(F)(F)F)cc2C(F)(F)F)nn1-c1ncccc1Cl [Compound 11]			
2.2	O=C(O)c1cc(Cl)cc(Cl)c1NC(=O)c1cc(Cn2cnc(C(F)F)n2)nn1-c1ncccc1Cl [Compound 12]			efficacy (kill) (Lucilia cuprina larvae): 90%; pest or weed control at 500 g/ha ([2]; 500 g/ha, sprayed maize leaf discs, after 7 days): 100%; pest or weed control at 500 g/ha ([3]; 500 g/ha, sprayed Chinese cabbage discs, after 7 days): 100%
3.36	Cc1cc(C#N)cc(C(=O)O)c1NC(=O)c1cc(Cn2nnc(C(F)(C(F)(F)F)C(F)(F)F)n2)nn1-c1ncccc1Cl [Compound 13]	100%	100%	pest or weed control at 100 g/ha [4]: 80%
2.65	Cc1cc(C#N)cc(C(=O)O)c1NC(=O)c1cc(Cn2nnc(C(F)(F)F)n2)nn1-c1ncccc1Cl [Compound 14]	100%		pest or weed control at 100 g/ha [4]: 80%
	O=C(O)c1cc(Cl)cc(Cl)c1NC(=O)c1cc(Cn2nc(C(F)(F)C(F)(F)C(F)(F)F)cc2C(F)(F)F)nn1-c1ncccc1Cl [Compound 15]			chromatographic logP [1, 5]: 4.4; pest or weed control at 100 g/ha ([3]; in Brassica rapa): 83%
2.63	Cc1cc(C#N)cc(C(=O)O)c1NC(=O)c1cc(Cn2cnc(C(F)(F)F)c2C(F)(F)F)nn1-c1ncccc1Cl [Compound 16]		100%	
3.16	Cc1cc(Cl)cc(C(=O)O)c1NC(=O)c1cc(Cn2nc(C)c(Br)c2C)nn1-c1ncccc1Cl [Compound 17]			

chromatographic logP [1, 6]	Structure (SMILES)	pest or weed control at 100 g/ha [2, 7]	pest or weed control at 100 g/ha [3, 8]	also measured
2.62	Cc1cc(C#N)cc(C(=O)O)c1NC(=O)c1cc(Cn2nc(C(F)F)cc2C(F)F)nn1-c1ncccc1Cl [Compound 18]			
2.68	Cc1nc(C(F)(F)F)nn1Cc1cc(C(=O)Nc2c(Cl)cc(Cl)cc2C(=O)O)n(-c2ncccc2Cl)n1 [Compound 19]			pest or weed control at 100 g/ha [4]: 80%
2.75	Cc1cc(F)cc(C(=O)O)c1NC(=O)c1cc(Cn2nnc(C(F)(F)F)n2)nn1-c1ncccc1Cl [Compound 20]			
3.04	O=C(O)c1cc(Cl)cc(Cl)c1NC(=O)c1cc(Cn2nnc(C(F)(F)F)n2)nn1-c1ncccc1Cl [Compound 21]	83%	100%	
3.44	Cc1cc(Cl)cc(C(=O)O)c1NC(=O)c1cc(Cn2nnc(C(F)(F)C(F)(F)F)n2)nn1-c1ncccc1Cl [Compound 22]		100%	
3.37	O=C(O)c1cc(Cl)cc(Cl)c1NC(=O)c1cc(Cn2nnc(C(F)(F)C(F)(F)F)n2)nn1-c1ncccc1Cl [Compound 23]		100%	
2.55	O=C(O)c1cc(Cl)cc(Cl)c1NC(=O)c1cc(Cn2nnc(C(F)F)n2)nn1-c1ncccc1Cl [Compound 25]			
3.03	O=C(O)c1cc(Cl)cc(Cl)c1NC(=O)c1cc(Cn2ncc(C(F)(F)F)n2)nn1-c1ncccc1Cl [Compound 26]	100%	100%	pest or weed control at 100 g/ha [4]: 90%
3.26	Cc1cc(I)cc(C(=O)O)c1NC(=O)c1cc(Cn2ncc(C(F)(F)F)n2)nn1-c1ncccc1Cl [Compound 27]	83%		
2.69	O=C(O)c1cc(Cl)cc(Cl)c1NC(=O)c1cc(Cn2cc(C(F)(F)F)nn2)nn1-c1ncccc1Cl [Compound 28]		100%	pest or weed control at 100 g/ha [4]: 100%
3.33	COC(=O)c1cc(F)cc(C)c1NC(=O)c1cc(Cn2nnc(C(F)(F)F)n2)nn1-c1ncccc1Cl [Compound 29]	100%	83%	
3.05	Cc1cc(Cl)cc(C(=O)O)c1NC(=O)c1cc(Cn2nnc(C(F)(F)F)n2)nn1-c1ncccc1Cl [Compound 30]	83%		pest or weed control at 100 g/ha [4]: 80%
3.75	Cc1cc(C#N)cc(C(=S)NC(C)(C)C)c1NC(=O)c1cc(Cn2nnc(C(F)(F)F)n2)nn1-c1ncccc1Cl [Compound 31]	83%	100%	pest or weed control at 100 g/ha [4]: 90%
2.56	Cc1cccc(S(N)(=O)=O)c1NC(=O)c1cc(Cn2nnc(C(F)(F)F)n2)nn1-c1ncccc1Cl [Compound 32]			
2.9	CNS(=O)(=O)c1cccc(C)c1NC(=O)c1cc(Cn2nnc(C(F)(F)F)n2)nn1-c1ncccc1Cl [Compound 33]			
3.35	CCC(=O)c1cccc(C)c1NC(=O)c1cc(Cn2nnc(C(F)(F)F)n2)nn1-c1ncccc1Cl [Compound 34]			
3.33	Cc1cccc(C(=O)C2CC2)c1NC(=O)c1cc(Cn2nnc(C(F)(F)F)n2)nn1-c1ncccc1Cl [Compound 35]	100%		
3.73	CNC(=S)c1cc(I)cc(C)c1NC(=O)c1cc(Cn2nnc(C(F)(F)F)n2)nn1-c1ncccc1Cl [Compound 36]	100%	100%	pest or weed control at 100 g/ha [4]: 100%
